According to the supplement of paper PMC10307832:

Assays:
Assay in all cases: relative viability (nuclei count vs DMSO), 5 days (fraction); higher = more cells survive
Dactolisib + Palbociclib = compound: Cn1c(=O)n(-c2ccc(C(C)(C)C#N)cc2)c2c3cc(-c4cnc5ccccc5c4)ccc3ncc21 [Dactolisib] + CC(=O)c1c(C)c2cnc(Nc3ccc(N4CCNCC4)cn3)nc2n(C2CCCC2)c1=O [Palbociclib] (partner 0.5 µM)
Outline: (§1)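 Five library-drug doses in √10 steps were combined with a fixed anchor-drug dose, or a single drug was given alone, by pin tool to lung cancer cell lines in 1536-well plates the day after seeding. Nuclei were stained and counted after 5 days. Relative viability is the nuclei count in treated wells over that in vehicle wells, taken as the median of duplicate plates.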

AZ505 + Luminespib = compound: C1CCC(CC1)N(CCNCCC2=C3C(=C(C=C2)O)NC(=O)CO3)C(=O)CCNCCC4=CC(=C(C=C4)Cl)Cl [AZ505] + CCNC(=O)c1noc(-c2cc(C(C)C)c(O)cc2O)c1-c1ccc(CN2CCOCC2)cc1 [Luminespib] (partner 0.01 µM)
Outline: as §1

Dactolisib + OSI-027 = compound: Cn1c(=O)n(-c2ccc(C(C)(C)C#N)cc2)c2c3cc(-c4cnc5ccccc5c4)ccc3ncc21 [Dactolisib] + COc1cccc2cc(-c3nc([C@H]4CC[C@H](C(=O)O)CC4)n4ncnc(N)c34)[nH]c12 [OSI-027] (partner 0.5 µM)
Outline: as §1

Dactolisib + Vorinostat = compound: Cn1c(=O)n(-c2ccc(C(C)(C)C#N)cc2)c2c3cc(-c4cnc5ccccc5c4)ccc3ncc21 [Dactolisib] + O=C(CCCCCCC(=O)Nc1ccccc1)NO [Vorinostat] (partner 1 µM)
Outline: as §1

## UMC-11
Dactolisib + Palbociclib; first compound 0.002 µM
  relative viability: 0.331
Dactolisib + Palbociclib; first compound 0.006325 µM
  relative viability: 0.311
Dactolisib + Palbociclib; first compound 0.02 µM
  relative viability: 0.344
Dactolisib + Palbociclib; first compound 0.06325 µM
  relative viability: 0.318
Dactolisib + Palbociclib; first compound 0.2 µM
  relative viability: 0.305
AZ505 + Luminespib; first compound 0.08 µM
  relative viability: 1.05
AZ505 + Luminespib; first compound 0.253 µM
  relative viability: 1.04
AZ505 + Luminespib; first compound 0.8 µM
  relative viability: 0.996
AZ505 + Luminespib; first compound 2.53 µM
  relative viability: 1.01
AZ505 + Luminespib; first compound 8 µM
  relative viability: 1.03
Dactolisib + OSI-027; first compound 0.002 µM
  relative viability: 0.432
Dactolisib + OSI-027; first compound 0.006325 µM
  relative viability: 0.537
Dactolisib + OSI-027; first compound 0.02 µM
  relative viability: 0.394
Dactolisib + OSI-027; first compound 0.06325 µM
  relative viability: 0.283
Dactolisib + OSI-027; first compound 0.2 µM
  relative viability: 0.248
Dactolisib + Vorinostat; first compound 0.002 µM
  relative viability: 0.407
Dactolisib + Vorinostat; first compound 0.006325 µM
  relative viability: 0.392
Dactolisib + Vorinostat; first compound 0.02 µM
  relative viability: 0.245
Dactolisib + Vorinostat; first compound 0.06325 µM
  relative viability: 0.235
Dactolisib + Vorinostat; first compound 0.2 µM
  relative viability: 0.175
